Assay results from patent publication US20060153933A1 (priority 2002, published 2006).
Like-named read-outs stand apart in the source and are kept apart here.

Tests used:
Format in all cases: in vivo
[1] = test system: Phytophthora infestans (PHYTIN); assay: whole plant or invertebrate; details: for pest or weed control at 1.85 ppm: read-out: % Disease Control (observed)
[2] = test system: Plasmopara viticola (PLASVI); assay: whole plant or invertebrate
[3] = test system: Plasmopara viticola (PLASVI); details: 1DC
[4] = test system: Phytophthora infestans (PHYTIN); details: 1DC
[5] = Plasmopara viticola, 48 h, read-out: % Disease Control (observed), 2DP, 1.85 ppm alone
[6] = Phytophthora infestans, 24 h, read-out: % Disease Control (observed), 1DP, 5.56 ppm alone
[7] = Phytophthora infestans, 24 h, read-out: % Disease Control (observed), 1DP, 0.62 ppm alone
[8] = Plasmopara viticola, 48 h, read-out: % Disease Control (observed), 2DP, 0.62 ppm alone
[9] = PHYTIN 2DP, applied alone at 5.56 ppm
[10] = PLASVI 2DP, applied alone at 5.56 ppm

Molecule: COC(=O)CC(NC(=O)[C@@H](NC(=O)OC(C)C)C(C)C)c1ccc(Cl)cc1 (mixture of isomers) [Compound 1, methyl (±)RS-[3-(N-isopropoxycarbonyl-S-valinyl)amino]-3-(4-chlorophenyl)propanoate]
- % Disease Control (Observed) ([1]; 2DP, 0.62 ppm alone): 7.0%
- % Disease Control (Observed) ([1]; in vivo): 40.4%
- % Disease Control (Observed) ([2]; 2DP, 1.85 ppm alone): 5.3%

Molecule: C[C@@]1(c2ccc(Oc3ccccc3)cc2)OC(=O)N(Nc2ccccc2)C1=O (racemic) [Famoxadone, famoxadone]
- pest or weed control at 1.85 ppm ([1]; Phytophthora infestans, 48 h): 47.4%
- pest or weed control at 1.85 ppm [2, 5]: 31.6%

Molecule: CO/C=C(/C(=O)OC)c1ccccc1Oc1cc(Oc2ccccc2C#N)ncn1 [Azoxystrobin, azoxystrobin]
- % Disease Control (Observed) ([1]; 3DP, 5.56 ppm alone): 33.3%
- % Disease Control (Observed) ([2]; 3DP, 1.85 ppm alone): 28.1%
- % Disease Control (Observed) ([2]; 3DP, 5.56 ppm alone): 59.6%

Molecule: COC(=O)C(C)N(C(=O)Cc1ccccc1)c1c(C)cccc1C (centres unmarked) [Benalaxyl, benalaxyl]
- % Disease Control (Observed) ([3]; 0.60 ppm alone): 24.6%
- % Disease Control (Observed) ([4]; 1.90 ppm alone): 8.8%
- % Disease Control (Observed) ([4]; 16.70 ppm alone): 12.3%

Molecule: CC(C)OC(=O)N[C@H](C(=O)N[C@H](C)c1nc2ccc(F)cc2s1)C(C)C [Benthivalicarb, benthivalicarb]
- % Disease Control (Observed) ([1]; 1DP, 0.62 ppm alone): 31.6%
- % Disease Control (Observed) ([4]; 0.62 ppm alone): 28.1%
- % Disease Control (Observed) ([2]; 1DP, 0.62 ppm alone): 57.9%

Molecule: O=C1C2CC=CCC2C(=O)N1SC(Cl)(Cl)Cl (centres unmarked) [Captan, captan]
- pest or weed control at 5.56 ppm [1, 6]: 0%

Molecule: N#Cc1c(Cl)c(Cl)c(Cl)c(C#N)c1Cl [Chlorothalonil, chlorothalonil]
- pest or weed control at 5.56 ppm [1, 6]: 0%
- pest or weed control at 1.85 ppm ([2]; Plasmopara viticola, 24 h, read-out: % Disease Control (observed), 1DP, 1.85 ppm alone): 0%

Molecule: [Cl-].[Cu+2].[Cu+2].[OH-].[OH-].[OH-] [Cu oxychloride, copper oxychloride]
- % Disease Control (Observed) ([1]; 3DP, 5.56 ppm alone): 17.5%
- % Disease Control (Observed) ([1]; 3DP, 16.70 ppm alone): 24.6%
- % Disease Control (Observed) ([1]; PHYTIN 6DP, applied alone at 12.8 ppm): 0%
- % Disease Control (Observed) ([1]; PHYTIN 6DP, applied alone at 38.3 ppm): 22.8%
- % Disease Control (Observed) ([1]; Table 10, PHYTIN (3DP) as printed, 16.70 ppm alone): 7.0%
- % Disease Control (Observed) ([2]; PLASVI 6DP, applied alone at 38.3 ppm): 3.5%

Molecule: [Cu+2].[OH-].[OH-] [Cu(OH)2, copper hydroxide]
- % Disease Control (Observed) ([1]; 3DP, 5.56 ppm alone): 14.0%
- % Disease Control (Observed) ([2]; 3DP, 16.70 ppm alone): 10.5%

Molecule: Cc1ccc(-c2c(Cl)nc(C#N)n2S(=O)(=O)N(C)C)cc1 [Cyazofamid, cyazofamid]
- pest or weed control at 0.62 ppm ([1]; Phytophthora infestans, 72 h, read-out: % Disease Control (observed), 3DP, 0.62 ppm alone): 82.5%
- pest or weed control at 0.62 ppm ([2]; Plasmopara viticola, 72 h, read-out: % Disease Control (observed), 3DP, 0.62 ppm alone): 7%

Molecule: CCNc1nc(CC)c(C(=O)NC(C#N)c2cccs2)s1 (centres unmarked) [Ethaboxam, ethaboxam]
- % Disease Control (Observed) ([1]; 2DP, 0.62 ppm alone): 10.5%
- % Disease Control (Observed) ([2]; 2DP, 1.85 ppm alone): 50.9%
- % Disease Control (Observed) ([2]; 2DP, 5.56 ppm alone): 78.9%

Molecule: O=[N+]([O-])c1cc(C(F)(F)F)c(Cl)c([N+](=O)[O-])c1Nc1ncc(C(F)(F)F)cc1Cl [Fluazinam, fluazinam]
- pest or weed control at 1.85 ppm ([1]; Phytophthora infestans, 72 h): 12.3%
- pest or weed control at 5.56 ppm ([1]; Phytophthora infestans, 72 h, read-out: % Disease Control (observed), 3DP, 5.56 ppm alone): 50.9%
- pest or weed control at 1.85 ppm [2, 5]: 14%

Molecule: O=C1c2ccccc2C(=O)N1SC(Cl)(Cl)Cl [Folpet, folpet]
- % Disease Control (Observed) ([1]; PHYTIN 2DP, applied alone at 4.3 ppm): 1.8%
- % Disease Control (Observed) ([1]; PHYTIN 2DP, applied alone at 12.8 ppm): 5.3%
- pest or weed control at 0.62 ppm [1, 7]: 0%
- % Disease Control (Observed) ([2]; PLASVI 2DP, applied alone at 4.3 ppm): 1.8%
- % Disease Control (Observed) ([2]; PLASVI 2DP, applied alone at 12.8 ppm): 22.8%
- pest or weed control at 5.56 ppm ([2]; Plasmopara viticola, 24 h, read-out: % Disease Control (observed), 1DP, 5.56 ppm alone): 0%

Molecule: CC[C@H](CS(=O)(=O)[C@@H](C)c1ccc(C#N)cc1)NC(=O)Oc1ccc(F)cc1 [Formula IIIa, 4-fluorophenyl(1S)-1-({[(1S)-1-(4-cyanophenyl)ethyl]sulfonyl}methyl) propylcarbamate]
- % Disease Control (Observed) ([1]; 4DP, 0.3 ppm alone): 19.3%
- % Disease Control (Observed) ([1]; 4DP, 0.60 ppm alone): 10.50%
- % Disease Control (Observed) ([1]; 4DP, 0.9 ppm alone): 73.7%
- % Disease Control (Observed) ([1]; 4DP, 1.9 ppm alone): 78.9%
- % Disease Control (Observed) ([1]; 4DP, 1.90 ppm alone): 78.90%
- % Disease Control (Observed) ([2]; 4DP, 1.9 ppm alone): 14.0%
- % Disease Control (Observed) ([2]; 4DP, 1.90 ppm alone): 14.00%
- % Disease Control (Observed) ([2]; 4DP, 2.8 ppm alone): 76.3%

Molecule: CCO[PH](=O)O [Fosetyl-Al, fosetyl-Al]
- % Disease Control (Observed) ([1]; PHYTIN 6DP, applied alone at 11.1 ppm): 0%
- % Disease Control (Observed) ([1]; PHYTIN 6DP, applied alone at 33.3 ppm): 0%
- % Disease Control (Observed) ([1]; in vivo): 0.0%
- % Disease Control (Observed) ([2]; 7DP, 1.85 ppm alone): 8.8%
- % Disease Control (Observed) ([2]; 7DP, 5.56 ppm alone): 10.5%
- % Disease Control (Observed) ([2]; 7DP, 16.70 ppm alone): 12.3%
- % Disease Control (Observed) ([2]; PLASVI 6DP, applied alone at 33.3 ppm): 0%

Molecule: Cc1ccc(C(C)NC(=O)[C@@H](NC(=O)OC(C)C)C(C)C)cc1 (some centres unmarked) [Iprovalicarb, iprovalicarb]
- % Disease Control (Observed) ([3]; 5.56 ppm alone): 40.0%
- % Disease Control (Observed) ([3]; 16.70 ppm alone): 50.0%
- % Disease Control (Observed) ([1]; 3DP, 5.56 ppm alone): 1.8%
- % Disease Control (Observed) ([1]; 3DP, 16.70 ppm alone): 33.3%
- % Disease Control (Observed) ([2]; 3DP, 1.85 ppm alone): 8.8%
- % Disease Control (Observed) ([2]; 3DP, 5.56 ppm alone): 26.3%

Molecule: COCC(=O)N(c1c(C)cccc1C)C(C)C(=O)OC (centres unmarked) [Metalaxyl, metalaxyl]
- pest or weed control at 5.56 ppm [1, 6]: 0%
- pest or weed control at 1.9 ppm ([2]; Plasmopara viticola, 72 h, read-out: % Disease Control (observed), 3DP, 1.90 ppm alone): 15.8%
- pest or weed control at 5.6 ppm ([2]; Plasmopara viticola, 72 h, read-out: % Disease Control (observed), 3DP, 5.60 ppm alone): 21.1%

Molecule: COCC(=O)N(c1c(C)cccc1C)N1CCOC1=O [Oxadixyl, oxadixyl]
- pest or weed control at 0.62 ppm [1, 7]: 0%
- pest or weed control at 1.9 ppm ([1]; Phytophthora infestans, 24 h, read-out: % Disease Control (observed), 1DP, 1.90 ppm alone): 24.6%
- pest or weed control at 0.2 ppm ([2]; Plasmopara viticola, 24 h, read-out: % Disease Control (observed), 1DP, 0.20 ppm alone (Formula III 0.00 ppm)): 19.3%

Molecule: CO/C=C(/C(=O)OC)c1ccccc1COc1cccc(C(F)(F)F)n1 [Picoxystrobin, picoxystrobin]
- % Disease Control (Observed) ([1]; 3DP, 5.56 ppm alone): 59.6%
- % Disease Control (Observed) ([2]; 3DP, 5.56 ppm alone): 61.4%

Molecule: CCCOC(=O)NCCCN(C)C [Propamocarb, propamocarb]
- pest or weed control at 1.85 ppm ([1]; Phytophthora infestans, 48 h): 1.8%
- pest or weed control at 0.62 ppm ([1]; Phytophthora infestans, 48 h, read-out: % Disease Control (observed), 2DP, 0.62 ppm alone): 0%
- pest or weed control at 5.56 ppm ([2]; Plasmopara viticola, 48 h, read-out: % Disease Control (observed), 2DP, 5.56 ppm alone): 0%

Molecule: COC(=O)N(OC)c1ccccc1COc1ccn(-c2ccc(Cl)cc2)n1 [Pyraclostrobin, pyraclostrobin]
- pest or weed control at 1.85 ppm ([1]; Phytophthora infestans, 48 h): 78.9%
- pest or weed control at 5.56 ppm ([1]; Phytophthora infestans, 48 h, read-out: % Disease Control (observed), 2DP, 5.56 ppm alone): 89.5%
- pest or weed control at 1.85 ppm ([2]; Plasmopara viticola, 24 h, read-out: % Disease Control (observed), 1DP, Table 14, 1.85 ppm alone): 0%
- pest or weed control at 5.56 ppm ([2]; Plasmopara viticola, 24 h, read-out: % Disease Control (observed), 1DP, Table 14, 5.56 ppm alone): 0%
- pest or weed control at 0.62 ppm [2, 8]: 61.4%

Molecule: CON=C(C(=O)OC)c1ccccc1CON=C(C)c1cccc(C(F)(F)F)c1 [Trifloxystrobin, trifloxystrobin]
- pest or weed control at 1.85 ppm ([1]; Phytophthora infestans, 48 h): 24.6%
- pest or weed control at 0.62 ppm [2, 8]: 1.8%
- pest or weed control at 1.85 ppm [2, 5]: 21.1%

Molecule: CCC(C)(NC(=O)c1cc(Cl)c(C)c(Cl)c1)C(=O)CCl (centres unmarked) [Zoxamide, zoxamide]
- % Disease Control (Observed) ([1]; 4DP, 1.90 ppm alone): 55.30%
- % Disease Control (Observed) ([1]; 4DP, 11.20 ppm alone): 19.30%
- % Disease Control (Observed) ([1]; 4DP, 16.70 ppm alone): 34.90%
- % Disease Control (Observed) ([1]; PHYTIN 2DP, applied alone at 0.4 ppm): 1.8%
- % Disease Control (Observed) ([1]; PHYTIN 2DP, applied alone at 1.1 ppm): 14%
- % Disease Control (Observed) ([1]; PHYTIN 3DP, applied alone at 1.1 ppm): 10.5%
- % Disease Control (Observed) ([1]; PHYTIN 6DP, applied alone at 1.1 ppm): 7%
- % Disease Control (Observed) ([1]; PHYTIN 6DP, applied alone at 3.3 ppm): 40.4%
- % Disease Control (Observed) ([2]; 4DP, 1.90 ppm alone): 5.30%
- % Disease Control (Observed) ([2]; 4DP, 5.60 ppm alone): 57.90%
- % Disease Control (Observed) ([2]; PLASVI 2DP, applied alone at 0.4 ppm): 3.5%
- % Disease Control (Observed) ([2]; PLASVI 2DP, applied alone at 1.1 ppm): 21.1%
- % Disease Control (Observed) ([2]; PLASVI 2DP, applied alone at 3.3 ppm): 36.8%
- % Disease Control (Observed) ([2]; PLASVI 3DP, applied alone at 0.4 ppm): 3.5%
- % Disease Control (Observed) ([2]; PLASVI 3DP, applied alone at 1.1 ppm): 17.5%
- % Disease Control (Observed) ([2]; PLASVI 6DP, applied alone at 3.3 ppm): 10.5%

Molecule: Maneb
- % Disease Control (Observed) ([1]; PHYTIN 3DP, applied alone at 5.56 ppm): 14.0%
- % Disease Control (Observed) ([1]; in vivo): 3.5%
- % Disease Control (Observed) ([2]; PLASVI 3DP, applied alone at 16.70 ppm): 24.6%

Molecule: Metiram
- % Disease Control (Observed) [1, 9]: 0.0%
- % Disease Control (Observed) ([2]; PLASVI 2DP, applied alone at 1.85 ppm): 5.3%
- % Disease Control (Observed) [2, 10]: 8.8%

Molecule: Propineb
- % Disease Control (Observed) [1, 9]: 0.0%
- % Disease Control (Observed) [2, 10]: 0.0%

Molecule: mancozeb
- % Disease Control (Observed) ([1]; 4DP, 0.60 ppm alone): 5.3%
- % Disease Control (Observed) ([1]; 4DP, 1.9 ppm alone): 8.8%
- % Disease Control (Observed) ([1]; 4DP, 5.6 ppm alone): 26.3%
- % Disease Control (Observed) ([1]; 4DP, 16.70 ppm alone): 40.4%
- % Disease Control (Observed) ([1]; PHYTIN 3DP, applied alone at 8.9 ppm): 5.3%
- % Disease Control (Observed) ([2]; 1DP, 2.7 ppm alone): 14%
- % Disease Control (Observed) ([2]; 1DP, 8.0 ppm alone): 33.3%
- % Disease Control (Observed) ([2]; 4DP, 1.9 ppm alone): 0%
- % Disease Control (Observed) ([2]; 4DP, 16.7 ppm alone): 12.3%
- % Disease Control (Observed) ([2]; PLASVI 3DP, applied alone at 8.9 ppm): 17.5%
